In the supplement of paper PMC10883282:
± gives the standard deviation of the averaged measurements.

Assays:
Test in all cases: relative viability vs DMSO control (72 h) (fraction); higher = more viable cells
VA-ES-BJ = system: VA-ES-BJ
Outline: (§1)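 After seeding at densities set for 80–90% confluence in 384-well plates, sarcoma cell lines waited 24 h before 2.5 µl of serially diluted compound was added. Source plates held 10 mM down to 0.0002 mM. Plates were incubated 72 h at 37 °C with 5% CO2, with 0.1% DMSO vehicle and a 5 µM positive control, and relative viability was taken from ATPLite as percent growth averaged over up to triplicate wells, with 1 set as full and 0 as none.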

SW982 = system: SW982
Outline: as §1

SW684 = system: SW684
Outline: as §1

G401 = system: G401
Outline: as §1

A204 = system: A204
Outline: as §1

KHOS-NP = system: KHOS-NP
Outline: as §1

SK-ES-1 = system: SK-ES-1
Outline: as §1

HS729 = system: HS729
Outline: as §1

RD-ES = system: RD-ES
Outline: as §1

SK-LMS-1 = system: SK-LMS-1
Outline: as §1

HT1080 = system: HT1080
Outline: as §1

SW872 = system: SW872
Outline: as §1

CN(C)C/C=C/C(=O)Nc1cc2c(Nc3ccc(F)c(Cl)c3)ncnc2cc1O[C@H]1CCOC1 [Afatinib]
Details | relative viability
A204, 0.00017 µM | 0.993 ± 0.055
A204, 0.00051 µM | 1 ± 0.053
A204, 0.00152 µM | 1.03 ± 0.042
A204, 0.00457 µM | 0.976 ± 0.085
A204, 0.01372 µM | 1.01 ± 0.081
A204, 0.04115 µM | 0.945 ± 0.051
A204, 0.1235 µM | 0.859 ± 0.046
A204, 0.3704 µM | 0.595 ± 0.067
A204, 1.111 µM | 0.34 ± 0.017
A204, 3.333 µM | 0.175 ± 0.021
A204, 10 µM | 0.00583 ± 0.0022
G401, 0.00017 µM | 1.02 ± 0.019
G401, 0.00051 µM | 1.03 ± 0.054
G401, 0.00152 µM | 1.015 ± 0.0047
G401, 0.00457 µM | 1.03 ± 0.021
G401, 0.01372 µM | 1.03 ± 0.036
G401, 0.04115 µM | 0.9814 ± 0.0069
G401, 0.1235 µM | 0.97 ± 0.039
G401, 0.3704 µM | 0.846 ± 0.037
G401, 1.111 µM | 0.61 ± 0.0089
G401, 3.333 µM | 0.472 ± 0.06
G401, 10 µM | 0.212 ± 0.19
HS729, 0.00017 µM | 1.07 ± 0.046
HS729, 0.00051 µM | 0.975 ± 0.051
HS729, 0.00152 µM | 0.989 ± 0.04
HS729, 0.00457 µM | 0.953 ± 0.057
HS729, 0.01372 µM | 0.958 ± 0.033
HS729, 0.04115 µM | 0.968 ± 0.035
HS729, 0.1235 µM | 0.937 ± 0.019
HS729, 0.3704 µM | 0.802 ± 0.033
HS729, 1.111 µM | 0.667 ± 0.026
HS729, 3.333 µM | 0.529 ± 0.035
HS729, 10 µM | 0.007367 ± 5.8e-05
HT1080, 0.00017 µM | 1.1 ± 0.052
HT1080, 0.00051 µM | 1.12 ± 0.021
HT1080, 0.00152 µM | 1.1 ± 0.065
HT1080, 0.00457 µM | 1.08 ± 0.038
HT1080, 0.01372 µM | 1.07 ± 0.018
HT1080, 0.04115 µM | 1.07 ± 0.019
HT1080, 0.1235 µM | 1.11 ± 0.033
HT1080, 0.3704 µM | 1.11 ± 0.039
HT1080, 1.111 µM | 1.02 ± 0.032
HT1080, 3.333 µM | 0.767 ± 0.11
HT1080, 10 µM | 0.173 ± 0.099
KHOS-NP, 0.00017 µM | 1.09 ± 0.018
KHOS-NP, 0.00051 µM | 1.08 ± 0.016
KHOS-NP, 0.00152 µM | 1.07 ± 0.025
KHOS-NP, 0.00457 µM | 1.07 ± 0.019
KHOS-NP, 0.01372 µM | 1.07 ± 0.025
KHOS-NP, 0.04115 µM | 1.07 ± 0.032
KHOS-NP, 0.1235 µM | 1.06 ± 0.046
KHOS-NP, 0.3704 µM | 1.08 ± 0.019
KHOS-NP, 1.111 µM | 1.02 ± 0.046
KHOS-NP, 3.333 µM | 0.967 ± 0.048
KHOS-NP, 10 µM | 0.0212 ± 0.012
RD-ES, 0.00017 µM | 0.992 ± 0.042
RD-ES, 0.00051 µM | 0.986 ± 0.04
RD-ES, 0.00152 µM | 1 ± 0.048
RD-ES, 0.00457 µM | 0.973 ± 0.044
RD-ES, 0.01372 µM | 1 ± 0.027
RD-ES, 0.04115 µM | 0.969 ± 0.024
RD-ES, 0.1235 µM | 0.914 ± 0.039
RD-ES, 0.3704 µM | 0.829 ± 0.028
RD-ES, 1.111 µM | 0.647 ± 0.012
RD-ES, 3.333 µM | 0.381 ± 0.077
RD-ES, 10 µM | 0.0144 ± 0.001
SK-ES-1, 0.00017 µM | 1.01 ± 0.04
SK-ES-1, 0.00051 µM | 1.05 ± 0.042
SK-ES-1, 0.00152 µM | 1.04 ± 0.024
SK-ES-1, 0.00457 µM | 0.988 ± 0.027
SK-ES-1, 0.01372 µM | 1.03 ± 0.007
SK-ES-1, 0.04115 µM | 0.959 ± 0.053
SK-ES-1, 0.1235 µM | 0.858 ± 0.034
SK-ES-1, 0.3704 µM | 0.676 ± 0.022
SK-ES-1, 1.111 µM | 0.306 ± 0.013
SK-ES-1, 3.333 µM | 0.117 ± 0.019
SK-ES-1, 10 µM | 0.113 ± 0.023
SK-LMS-1, 0.00017 µM | 1.1 ± 0.056
SK-LMS-1, 0.00051 µM | 1.1 ± 0.016
SK-LMS-1, 0.00152 µM | 1.11 ± 0.027
SK-LMS-1, 0.00457 µM | 1.08 ± 0.029
SK-LMS-1, 0.01372 µM | 1.13 ± 0.048
SK-LMS-1, 0.04115 µM | 1.04 ± 0.05
SK-LMS-1, 0.1235 µM | 1.01 ± 0.034
SK-LMS-1, 0.3704 µM | 0.879 ± 0.011
SK-LMS-1, 1.111 µM | 0.724 ± 0.021
SK-LMS-1, 3.333 µM | 0.462 ± 0.09
SK-LMS-1, 10 µM | 0.135 ± 0.2
SW684, 0.00017 µM | 1.18 ± 0.045
SW684, 0.00051 µM | 1.18 ± 0.038
SW684, 0.00152 µM | 1.23 ± 0.062
SW684, 0.00457 µM | 1.18 ± 0.022
SW684, 0.01372 µM | 1.14 ± 0.029
SW684, 0.04115 µM | 1.13 ± 0.029
SW684, 0.1235 µM | 1.1 ± 0.037
SW684, 0.3704 µM | 1.04 ± 0.051
SW684, 1.111 µM | 0.816 ± 0.011
SW684, 3.333 µM | 0.527 ± 0.019
SW684, 10 µM | 0.203 ± 0.15
SW872, 0.00017 µM | 1.07 ± 0.036
SW872, 0.00051 µM | 1.14 ± 0.039
SW872, 0.00152 µM | 1.09 ± 0.012
SW872, 0.00457 µM | 1.11 ± 0.065
SW872, 0.01372 µM | 1.07 ± 0.04
SW872, 0.04115 µM | 1.06 ± 0.057
SW872, 0.1235 µM | 1.02 ± 0.07
SW872, 0.3704 µM | 0.896 ± 0.057
SW872, 1.111 µM | 0.595 ± 0.011
SW872, 3.333 µM | 0.304 ± 0.0056
SW872, 10 µM | 0.257 ± 0.079
SW982, 0.00017 µM | 1.017 ± 0.0088
SW982, 0.00051 µM | 1.03 ± 0.02
SW982, 0.00152 µM | 1.03 ± 0.022
SW982, 0.00457 µM | 1.06 ± 0.023
SW982, 0.01372 µM | 1.05 ± 0.034
SW982, 0.04115 µM | 1.02 ± 0.041
SW982, 0.1235 µM | 0.914 ± 0.051
SW982, 0.3704 µM | 0.659 ± 0.0084
SW982, 1.111 µM | 0.286 ± 0.0054
SW982, 3.333 µM | 0.183 ± 0.0057
SW982, 10 µM | 0.219 ± 0.0079
VA-ES-BJ, 0.00017 µM | 1.09 ± 0.064
VA-ES-BJ, 0.00051 µM | 1.1 ± 0.052
VA-ES-BJ, 0.00152 µM | 1.06 ± 0.042
VA-ES-BJ, 0.00457 µM | 1.03 ± 0.055
VA-ES-BJ, 0.01372 µM | 0.983 ± 0.04
VA-ES-BJ, 0.04115 µM | 0.974 ± 0.064
VA-ES-BJ, 0.1235 µM | 0.968 ± 0.064
VA-ES-BJ, 0.3704 µM | 0.911 ± 0.022
VA-ES-BJ, 1.111 µM | 0.573 ± 0.027
VA-ES-BJ, 3.333 µM | 0.351 ± 0.036
VA-ES-BJ, 10 µM | 0.207 ± 0.0046
